Measured values from patent US20240245694A1, “Tricyclic Compounds and their Uses” (Novartis AG, priority 2022, published 2024).

Columns and labels:
[1] = test system: SW48 cells; experiment: Proliferation assay SW48 (CellTiterGlo, 96 hours); assay type: cell-based; settings: Homo sapiens
Method in brief: (§1)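 Cells in RPMI-1640/10% FCS were seeded overnight (SW48 2'000, DLD1-WRN-KO 1'500 cells/well), then exposed to eight 3-fold compound dilutions at 0.1% DMSO. ATP luminescence relative to a day-0 plate gives % growth (0% stasis, −100% complete kill). GI50 is the geometric mean of ≥2 independent replicates.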

[2] = test system: DLD1-WRN-KO cells; experiment: Proliferation assay DLD1-WRN-KO (CellTiterGlo, 96 hours), off-target effects; assay type: cell-based; settings: Homo sapiens
Method in brief: as §1

[3] = biological target: WRN helicase (core helicase motif aa N517-P1238) (Homo sapiens (Human), UniProt Q14191); experiment: WRN ATPase assay (ADP-Glo), DNA dependent ATP hydrolysis; assay type: biochemical; settings: 3 hours pre-incubation, 300 micromolar ATP, FLAP26 ssDNA; geometric means of at least 2 determinations
Chain of WRN helicase (core helicase motif aa N517-P1238) (Q14191 517-1238): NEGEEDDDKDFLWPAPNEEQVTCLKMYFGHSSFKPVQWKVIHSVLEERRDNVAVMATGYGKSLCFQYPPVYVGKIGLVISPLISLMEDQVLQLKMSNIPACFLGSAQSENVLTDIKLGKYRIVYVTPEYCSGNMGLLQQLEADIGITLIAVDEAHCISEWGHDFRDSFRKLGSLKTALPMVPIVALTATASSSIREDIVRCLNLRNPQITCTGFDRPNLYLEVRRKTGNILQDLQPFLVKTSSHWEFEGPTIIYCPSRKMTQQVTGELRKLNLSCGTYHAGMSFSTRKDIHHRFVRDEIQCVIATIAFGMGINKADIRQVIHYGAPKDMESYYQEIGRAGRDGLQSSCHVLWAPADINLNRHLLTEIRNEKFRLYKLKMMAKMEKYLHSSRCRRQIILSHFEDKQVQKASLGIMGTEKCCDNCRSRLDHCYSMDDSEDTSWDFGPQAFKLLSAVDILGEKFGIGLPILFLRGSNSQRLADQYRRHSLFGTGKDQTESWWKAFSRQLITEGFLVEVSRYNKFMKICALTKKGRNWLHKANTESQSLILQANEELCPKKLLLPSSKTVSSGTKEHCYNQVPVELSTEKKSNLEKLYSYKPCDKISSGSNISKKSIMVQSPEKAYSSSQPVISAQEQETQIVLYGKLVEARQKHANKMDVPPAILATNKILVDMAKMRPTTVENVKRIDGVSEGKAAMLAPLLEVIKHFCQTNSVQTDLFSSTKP
Method in brief: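 Uses the WRN core helicase (aa N517-P1238) with single-strand 45-mer FLAP26 DNA in Tris pH 7.5, MgCl2, NaCl, BSA and pluronic buffer. Compound was pre-incubated 3 h with enzyme and ATP; reaction then run with 10 nM WRN, 0.2 nM FLAP26 and 300 µM ATP for 30 min at room temperature. ADP quantified by ADP-Glo luminescence; IC50 from duplicate 4-parameter fits, geometric mean of ≥2 runs.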

Row | Compound | GI50 [1] | GI50 [2] | IC50 [3]
1 | Cc1ncnc(C(=O)N2CCN(c3c4n(c5nc(C6=CCOCC6)nn5c3=O)[C@H](C(=O)Nc3ccc(C(F)(F)F)cc3Cl)C[C@H]4C)C[C@H]2C)c1O [Example 18C, (7R,9S)—N-(2-chloro-4-(trifluoromethyl)phenyl)-2-(3,6-dihydro-2H-pyran-4-yl)-6-((R)-4-(5-hydroxy-6-methylpyrimidine-4-carbonyl)-3-methylpiperazin-1-yl)-7-methyl-5-oxo-5,7,8,9-tetrahydropyrrolo[1,2-c][1,2,4]triazolo[1,5-a]pyrimidine-9-carboxamide] | > 10000 nM | > 10000 nM | > 10000 nM
2 | Cc1ncnc(C(=O)N2CCN(c3c4n(c5nc(C6=CCOCC6)nn5c3=O)[C@@H](C(=O)Nc3ccc(C(F)(F)F)cc3Cl)C[C@@H]4C)C[C@H]2C)c1O [Example 18D, (7S,9R)—N-(2-chloro-4-(trifluoromethyl)phenyl)-2-(3,6-dihydro-2H-pyran-4-yl)-6-((R)-4-(5-hydroxy-6-methylpyrimidine-4-carbonyl)-3-methylpiperazin-1-yl)-7-methyl-5-oxo-5,7,8,9-tetrahydropyrrolo[1,2-c][1,2,4]triazolo[1,5-a]pyrimidine-9-carboxamide] | 500 nM | > 10000 nM | 100 nM
3 | Cc1cc(C(F)(F)F)ccc1NC(=O)[C@H]1CCc2c(N3CCN(C(=O)c4nccc(Cl)c4O)CC3)c(=O)n3nc(C4=CCOCC4)nc3n21 [Example 19A, (R)-6-(4-(4-chloro-3-hydroxypicolinoyl)piperazin-1-yl)-2-(3,6-dihydro-2H-pyran-4-yl)-N-(2-methyl-4-(trifluoromethyl)phenyl)-5-oxo-5,7,8,9-tetrahydropyrrolo[1,2-c][1,2,4]triazolo[1,5-a]pyrimidine-9-carboxamide] | 200 nM | > 10000 nM | 40 nM
4 | Cc1cc(C(F)(F)F)ccc1NC(=O)[C@H]1CCc2c(N3CCN(C(=O)c4ncccc4O)CC3)c(=O)n3nc(C4=CCOCC4)nc3n21 [Example 20A, (R)-2-(3,6-dihydro-2H-pyran-4-yl)-6-(4-(3-hydroxypicolinoyl)piperazin-1-yl)-N-(2-methyl-4-(trifluoromethyl)phenyl)-5-oxo-5,7,8,9-tetrahydropyrrolo[1,2-c][1,2,4]triazolo[1,5-a]pyrimidine-9-carboxamide] | 300 nM | > 10000 nM | 90 nM
5 | Cc1cc(C(F)(F)F)ccc1NC(=O)[C@@H]1CCc2c(N3CCN(C(=O)c4ncccc4O)CC3)c(=O)n3nc(C4=CCOCC4)nc3n21 [Example 20B, (S)-2-(3,6-dihydro-2H-pyran-4-yl)-6-(4-(3-hydroxypicolinoyl)piperazin-1-yl)-N-(2-methyl-4-(trifluoromethyl)phenyl)-5-oxo-5,7,8,9-tetrahydropyrrolo[1,2-c][1,2,4]triazolo[1,5-a]pyrimidine-9-carboxamide] | > 10000 nM | > 10000 nM | > 10000 nM
6 | Cc1ncnc(C(=O)N2CCN(c3c4n(c5nc(C6=CCOCC6)nn5c3=O)[C@@H](C(=O)Nc3ccc(C(F)(F)F)cc3Cl)C[C@@H]4C)[C@H]3CC[C@@H]32)c1O [Example 21C, (7S,9R)—N-(2-chloro-4-(trifluoromethyl)phenyl)-2-(3,6-dihydro-2H-pyran-4-yl)-6-((1S,6S)-5-(5-hydroxy-6-methylpyrimidine-4-carbonyl)-2,5-diazabicyclo[4.2.0]octan-2-yl)-7-methyl-5-oxo-5,7,8,9-tetrahydropyrrolo[1,2-c][1,2,4]triazolo[1,5-a]pyrimidine-9-carboxamide] | 10 nM | > 10000 nM | 40 nM
7 | O=C(Nc1ccc(C(F)(F)F)cc1)[C@H]1CCc2c(N3CCN(C(=O)c4ncccc4O)CC3)c(=O)n3nc(C4=CCOCC4)nc3n21 [Example 23A, (R)-2-(3,6-dihydro-2H-pyran-4-yl)-6-(4-(3-hydroxypicolinoyl)piperazin-1-yl)-5-oxo-N-(4-(trifluoromethyl)phenyl)-5,7,8,9-tetrahydropyrrolo[1,2-c][1,2,4]triazolo[1,5-a]pyrimidine-9-carboxamide] | 200 nM | > 10000 nM | 50 nM
8 | O=C(Nc1ccc(C(F)(F)F)cc1)[C@@H]1CCc2c(N3CCN(C(=O)c4ncccc4O)CC3)c(=O)n3nc(C4=CCOCC4)nc3n21 [Example 23B, (S)-2-(3,6-dihydro-2H-pyran-4-yl)-6-(4-(3-hydroxypicolinoyl)piperazin-1-yl)-5-oxo-N-(4-(trifluoromethyl)phenyl)-5,7,8,9-tetrahydropyrrolo[1,2-c][1,2,4]triazolo[1,5-a]pyrimidine-9-carboxamide] | > 10000 nM | > 10000 nM | 69000 nM
